Test [1] deals with T1, Protein deacetylase HDAC6 (Homo sapiens, UniProt Q9UBN7).
T1 sequence (Q9UBN7 whole entry): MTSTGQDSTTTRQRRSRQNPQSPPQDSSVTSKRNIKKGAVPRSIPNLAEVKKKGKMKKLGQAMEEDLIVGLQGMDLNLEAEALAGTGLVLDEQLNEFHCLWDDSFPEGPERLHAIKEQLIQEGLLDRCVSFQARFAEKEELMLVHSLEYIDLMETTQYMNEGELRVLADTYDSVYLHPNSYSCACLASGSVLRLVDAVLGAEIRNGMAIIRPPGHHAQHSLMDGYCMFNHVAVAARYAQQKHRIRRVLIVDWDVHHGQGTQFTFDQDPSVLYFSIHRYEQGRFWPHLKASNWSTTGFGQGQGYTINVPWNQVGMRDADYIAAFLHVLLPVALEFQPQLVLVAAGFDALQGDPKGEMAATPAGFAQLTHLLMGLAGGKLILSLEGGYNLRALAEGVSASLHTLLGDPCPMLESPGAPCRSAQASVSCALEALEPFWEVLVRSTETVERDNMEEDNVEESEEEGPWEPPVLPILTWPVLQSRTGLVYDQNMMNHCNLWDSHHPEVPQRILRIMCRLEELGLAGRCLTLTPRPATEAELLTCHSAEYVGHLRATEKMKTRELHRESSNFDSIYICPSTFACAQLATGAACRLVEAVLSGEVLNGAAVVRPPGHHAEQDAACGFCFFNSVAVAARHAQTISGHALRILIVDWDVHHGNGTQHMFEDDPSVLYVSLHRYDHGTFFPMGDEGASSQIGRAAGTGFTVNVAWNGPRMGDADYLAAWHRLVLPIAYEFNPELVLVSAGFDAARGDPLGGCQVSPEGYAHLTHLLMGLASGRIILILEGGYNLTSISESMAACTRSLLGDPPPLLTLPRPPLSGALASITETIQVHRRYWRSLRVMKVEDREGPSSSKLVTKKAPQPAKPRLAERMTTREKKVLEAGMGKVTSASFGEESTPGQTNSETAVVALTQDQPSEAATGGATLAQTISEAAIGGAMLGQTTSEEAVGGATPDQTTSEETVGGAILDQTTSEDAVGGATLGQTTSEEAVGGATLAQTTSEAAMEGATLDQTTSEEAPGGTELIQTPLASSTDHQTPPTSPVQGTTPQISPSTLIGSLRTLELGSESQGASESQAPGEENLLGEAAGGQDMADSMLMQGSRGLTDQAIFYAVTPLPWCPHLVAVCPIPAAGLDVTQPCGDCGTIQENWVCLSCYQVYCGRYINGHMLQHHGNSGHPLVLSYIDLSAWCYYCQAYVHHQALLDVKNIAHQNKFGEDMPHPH
The experiment in a line: Inhibition of human HDAC6 after 15 mins by trypsin-coupled fluorescence assay.

The target in the next test is Histone deacetylase 1 (Homo sapiens, UniProt Q13547). The experiment in a line: Inhibition of human HDAC1 after 15 mins by trypsin-coupled fluorescence assay.
The target in the next test is Histone deacetylase 2 (Homo sapiens, UniProt Q92769). The experiment in a line: Inhibition of human HDAC2 after 15 mins by trypsin-coupled fluorescence assay.
In another test the target is Histone deacetylase 3 (Homo sapiens, UniProt O15379). The experiment in a line: Inhibition of human HDAC3 after 15 mins by trypsin-coupled fluorescence assay.
In another test the target is Histone deacetylase 4 (Homo sapiens, UniProt P56524). Briefly: Inhibition of human HDAC4 after 15 mins by trypsin-coupled fluorescence assay.
In the next test the target is Histone deacetylase 5 (Homo sapiens, UniProt Q9UQL6). The experiment in a line: Inhibition of human HDAC5 after 15 mins by trypsin-coupled fluorescence assay.
For a further test, the target named is T2, Histone deacetylase 8 (Homo sapiens, UniProt Q9BY41).
T2 sequence (Q9BY41 whole entry): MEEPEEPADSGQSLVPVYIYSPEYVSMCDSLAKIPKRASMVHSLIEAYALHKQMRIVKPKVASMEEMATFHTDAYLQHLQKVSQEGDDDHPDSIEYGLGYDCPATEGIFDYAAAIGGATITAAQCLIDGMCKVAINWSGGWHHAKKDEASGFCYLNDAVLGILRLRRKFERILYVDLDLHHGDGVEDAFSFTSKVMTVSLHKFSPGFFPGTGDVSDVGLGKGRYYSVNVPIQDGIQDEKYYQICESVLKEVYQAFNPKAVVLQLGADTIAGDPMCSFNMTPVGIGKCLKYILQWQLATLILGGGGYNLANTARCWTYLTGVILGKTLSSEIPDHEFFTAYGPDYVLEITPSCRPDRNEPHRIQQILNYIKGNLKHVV
Briefly: Inhibition of human HDAC8 after 15 mins by trypsin-coupled fluorescence assay.

Another test concerns the target T3, Histone deacetylase 11 (Homo sapiens, UniProt Q96DB2).
T3 sequence (Q96DB2 whole entry): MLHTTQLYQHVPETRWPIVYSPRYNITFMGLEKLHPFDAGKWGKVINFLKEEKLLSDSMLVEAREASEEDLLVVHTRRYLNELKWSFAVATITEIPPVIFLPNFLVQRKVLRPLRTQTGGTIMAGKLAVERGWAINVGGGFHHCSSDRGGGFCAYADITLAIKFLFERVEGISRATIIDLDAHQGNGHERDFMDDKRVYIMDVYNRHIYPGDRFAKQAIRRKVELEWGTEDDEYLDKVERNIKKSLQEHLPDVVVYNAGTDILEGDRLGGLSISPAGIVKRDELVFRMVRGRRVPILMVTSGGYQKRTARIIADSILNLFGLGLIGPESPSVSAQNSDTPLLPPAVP
Briefly: Inhibition of human HDAC11 after 15 mins by trypsin-coupled fluorescence assay.

For test [2], the species on record is Homo sapiens. The experiment in a line: Selectivity index, ratio of IC50 for human HDAC1 to IC50 for human HDAC6.
The species named for test [3] is Homo sapiens. Briefly: Selectivity index, ratio of IC50 for human HDAC4 to IC50 for human HDAC6.
Test [4] is filed under the species Homo sapiens. The experiment in a line: Selectivity index, ratio of IC50 for human HDAC7 to IC50 for human HDAC6.
For test [5], the species on record is Homo sapiens. Briefly: Selectivity index, ratio of IC50 for human HDAC9 to IC50 for human HDAC6.
Test [6] is filed under the species Homo sapiens. The experiment in a line: Selectivity index, ratio of IC50 for human HDAC10 to IC50 for human HDAC6.
The species named for test [7] is Homo sapiens. The experiment in a line: Selectivity index, ratio of IC50 for human HDAC11 to IC50 for human HDAC6.

Histone deacetylase 4, sequence (P56524 whole entry): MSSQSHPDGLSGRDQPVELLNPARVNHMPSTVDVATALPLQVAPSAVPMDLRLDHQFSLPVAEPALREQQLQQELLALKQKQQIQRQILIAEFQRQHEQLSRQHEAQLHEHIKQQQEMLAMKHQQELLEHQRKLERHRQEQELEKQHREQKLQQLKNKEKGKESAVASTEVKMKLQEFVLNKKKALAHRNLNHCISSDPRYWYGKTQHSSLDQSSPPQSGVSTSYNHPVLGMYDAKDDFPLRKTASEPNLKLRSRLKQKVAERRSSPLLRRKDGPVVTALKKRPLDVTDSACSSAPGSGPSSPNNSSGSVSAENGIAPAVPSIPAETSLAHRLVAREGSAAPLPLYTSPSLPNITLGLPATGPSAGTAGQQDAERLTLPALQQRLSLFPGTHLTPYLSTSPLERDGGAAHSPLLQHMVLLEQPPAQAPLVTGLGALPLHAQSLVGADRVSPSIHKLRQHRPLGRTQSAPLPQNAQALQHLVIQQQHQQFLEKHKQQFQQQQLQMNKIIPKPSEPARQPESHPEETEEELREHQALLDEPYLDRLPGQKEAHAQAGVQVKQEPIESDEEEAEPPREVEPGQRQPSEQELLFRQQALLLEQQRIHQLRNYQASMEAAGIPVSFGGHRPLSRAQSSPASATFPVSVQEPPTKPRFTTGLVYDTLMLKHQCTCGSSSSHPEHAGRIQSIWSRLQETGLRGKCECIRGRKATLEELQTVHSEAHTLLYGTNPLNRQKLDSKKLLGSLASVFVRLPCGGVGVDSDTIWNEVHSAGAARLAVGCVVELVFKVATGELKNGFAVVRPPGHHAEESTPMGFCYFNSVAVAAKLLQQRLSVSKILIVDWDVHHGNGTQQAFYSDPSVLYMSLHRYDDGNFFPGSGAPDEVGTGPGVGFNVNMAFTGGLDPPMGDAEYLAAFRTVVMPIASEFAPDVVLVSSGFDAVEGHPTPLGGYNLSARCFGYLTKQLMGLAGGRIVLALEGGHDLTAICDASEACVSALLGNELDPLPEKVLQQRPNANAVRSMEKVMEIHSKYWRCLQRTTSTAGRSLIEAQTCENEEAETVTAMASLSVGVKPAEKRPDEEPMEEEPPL
Histone deacetylase 3, sequence (O15379 whole entry): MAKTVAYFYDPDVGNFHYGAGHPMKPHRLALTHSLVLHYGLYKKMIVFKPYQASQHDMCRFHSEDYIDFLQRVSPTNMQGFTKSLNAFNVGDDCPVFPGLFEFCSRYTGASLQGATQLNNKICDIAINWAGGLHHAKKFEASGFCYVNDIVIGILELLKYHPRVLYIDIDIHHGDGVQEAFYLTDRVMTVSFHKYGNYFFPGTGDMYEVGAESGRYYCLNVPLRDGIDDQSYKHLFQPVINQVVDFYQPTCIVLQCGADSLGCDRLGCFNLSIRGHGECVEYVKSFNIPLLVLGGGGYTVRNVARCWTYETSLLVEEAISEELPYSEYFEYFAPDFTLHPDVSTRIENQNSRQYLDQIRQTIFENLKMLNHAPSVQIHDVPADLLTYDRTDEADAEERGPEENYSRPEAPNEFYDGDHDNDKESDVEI
Histone deacetylase 2, sequence (Q92769 whole entry): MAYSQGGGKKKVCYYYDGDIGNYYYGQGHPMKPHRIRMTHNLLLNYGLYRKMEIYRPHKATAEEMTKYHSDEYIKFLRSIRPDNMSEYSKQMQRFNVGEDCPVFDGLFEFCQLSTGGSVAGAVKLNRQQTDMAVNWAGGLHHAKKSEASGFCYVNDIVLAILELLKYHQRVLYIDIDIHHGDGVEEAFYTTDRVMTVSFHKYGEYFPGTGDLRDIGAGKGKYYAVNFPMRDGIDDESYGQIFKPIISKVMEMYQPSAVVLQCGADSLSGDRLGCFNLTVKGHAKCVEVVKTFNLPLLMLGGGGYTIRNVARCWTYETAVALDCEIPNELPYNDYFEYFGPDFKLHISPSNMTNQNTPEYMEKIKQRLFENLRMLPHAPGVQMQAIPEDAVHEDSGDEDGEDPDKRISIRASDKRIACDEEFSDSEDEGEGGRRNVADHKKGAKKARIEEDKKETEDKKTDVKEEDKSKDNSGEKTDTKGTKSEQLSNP
Histone deacetylase 1, sequence (Q13547 whole entry): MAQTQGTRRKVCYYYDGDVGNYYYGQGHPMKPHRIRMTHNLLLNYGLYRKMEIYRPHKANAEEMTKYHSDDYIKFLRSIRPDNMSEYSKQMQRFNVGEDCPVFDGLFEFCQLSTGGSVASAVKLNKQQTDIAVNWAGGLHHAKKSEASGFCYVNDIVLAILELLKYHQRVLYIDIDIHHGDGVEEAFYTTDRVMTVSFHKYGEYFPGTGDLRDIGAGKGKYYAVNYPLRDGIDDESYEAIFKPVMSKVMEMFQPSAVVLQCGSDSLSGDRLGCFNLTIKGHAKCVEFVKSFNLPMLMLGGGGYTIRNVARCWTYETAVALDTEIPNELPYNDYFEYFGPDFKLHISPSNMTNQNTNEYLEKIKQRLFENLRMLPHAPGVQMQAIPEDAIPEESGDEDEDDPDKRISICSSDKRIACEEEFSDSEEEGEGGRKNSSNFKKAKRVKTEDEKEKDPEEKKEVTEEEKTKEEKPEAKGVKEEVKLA
Histone deacetylase 5, sequence (Q9UQL6 whole entry): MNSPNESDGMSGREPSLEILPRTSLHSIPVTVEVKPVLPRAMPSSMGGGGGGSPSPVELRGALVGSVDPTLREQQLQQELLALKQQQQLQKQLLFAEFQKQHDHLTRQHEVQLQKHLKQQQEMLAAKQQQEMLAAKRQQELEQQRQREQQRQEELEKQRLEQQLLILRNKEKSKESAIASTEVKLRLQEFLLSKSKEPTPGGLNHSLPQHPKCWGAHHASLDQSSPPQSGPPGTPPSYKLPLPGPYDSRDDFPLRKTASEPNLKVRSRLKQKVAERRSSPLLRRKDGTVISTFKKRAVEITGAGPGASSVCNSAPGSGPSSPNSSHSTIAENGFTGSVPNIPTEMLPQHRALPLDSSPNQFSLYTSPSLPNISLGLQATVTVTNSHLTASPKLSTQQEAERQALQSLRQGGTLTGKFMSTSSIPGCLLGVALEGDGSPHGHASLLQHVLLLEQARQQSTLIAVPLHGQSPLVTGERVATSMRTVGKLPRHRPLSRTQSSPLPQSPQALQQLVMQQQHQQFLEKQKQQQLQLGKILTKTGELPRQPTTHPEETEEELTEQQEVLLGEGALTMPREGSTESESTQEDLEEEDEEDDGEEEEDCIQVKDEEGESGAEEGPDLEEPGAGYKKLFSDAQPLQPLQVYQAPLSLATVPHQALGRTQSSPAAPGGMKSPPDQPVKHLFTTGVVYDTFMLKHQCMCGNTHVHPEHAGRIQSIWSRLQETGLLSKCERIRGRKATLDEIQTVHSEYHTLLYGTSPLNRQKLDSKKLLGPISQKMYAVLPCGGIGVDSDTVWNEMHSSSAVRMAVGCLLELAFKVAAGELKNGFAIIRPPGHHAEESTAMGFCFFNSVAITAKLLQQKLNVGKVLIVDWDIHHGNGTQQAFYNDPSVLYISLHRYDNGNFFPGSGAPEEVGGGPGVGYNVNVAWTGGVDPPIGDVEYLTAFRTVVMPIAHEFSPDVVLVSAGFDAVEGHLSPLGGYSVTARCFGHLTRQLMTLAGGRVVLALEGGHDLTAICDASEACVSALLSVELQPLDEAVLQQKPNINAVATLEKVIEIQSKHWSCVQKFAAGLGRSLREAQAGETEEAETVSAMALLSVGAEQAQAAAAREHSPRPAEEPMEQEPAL

As to `O=C(NO)c1ccc(CN(CCO)C(=O)Cc2ccccc2)cc1`, the IC50 amounted to 25 nM in test [1]; 800 nM on Histone deacetylase 1; 2200 nM at Histone deacetylase 2; 2100 nM at Histone deacetylase 3; 2200 nM against Histone deacetylase 4; 9500 nM against Histone deacetylase 5. Also, the IC50 against Histone deacetylase 8 was 400 nM; on Histone deacetylase 11, 3700 nM. Moreover, the Ratio IC50 in the test listed under Homo sapiens [2], in the test filed under Homo sapiens [3], in the test filed under Homo sapiens [4], in the test listed under Homo sapiens [5], in the test filed under Homo sapiens [6] and in the test listed under Homo sapiens [7] was 15 to 400 throughout.

The term IC50 denotes the point on the concentration scale where inhibition reaches its midpoint. Lower therefore signals higher potency.

For the origin of these results see ChEMBL document CHEMBL4033665, “Synthesis and applications of benzohydroxamic acid-based histone deacetylase inhibitors” (Eur J Med Chem, 2017).
